# System: L1210/5-FU leukemia
# Assay: Therapeutic activity in DBA/2N mice with 5-FU resistant L1210 leukemia
# Type: in vivo, mouse (DBA/2N female)
# Details: for Median survival: control 9; for Mean ± SD survival: control 9.25 ± 0.2
# Description: In conducting the evaluations, the activity was tested against intraperitoneal (i.p.) implanted leukemia in mice.
# DBA/2N female mice (20 g) were implanted i.p. with 1×10^6 L1210 leukemia cells on day 0. Mice were weighed and inspected for tumor growth and survival daily. […] Dosages varied from 1 to 800 mg/kg/day (mkd).
# Survival time was measured in days after tumor implantation. % ILS (increase in life span) was based on mean survival.
# Testing was followed as described in the NCI protocol and evaluation by comparison of median survival time (ST) of the treated animals to that of the control animals by the percentage increase in % ILS.
# Drug resistant L1210 leukemia cell sublines were obtained from the National Cancer Institute. […] Eight mice were used as controls and five mice for each drug dosage group. Drugs were administered i.p. once per day on days 1, 2, 3, 4 and 5.
compound,measurement,setting,value
"COC1OC[C@@H](OC(C)=O)[C@@H](OC(C)=O)[C@]1(F)n1ccc(=O)[nH]c1=O (stereo partly drawn) [compound 85024, Methyl 3,4-di-0-acetyl-2-deoxy-2(R)-[1H,3H-2,4-dioxo-1-pyrimidinyl]-2-fluoro-α-D-arabinopyranoside [5a] and methyl 3,4-di-0-acetyl-2-deoxy-2(R)-[1H,3H-2,4-dioxo-1-pyrimidinyl]-2-fluoro-β-D-arabinopyranoside [6a]]",Mean Animal Weight,100 mkd × 5 i.p.,20.6 g
same,Survival Range,100 mkd × 5 i.p.,9 to 12 days
same,% ILS (increase in life span),"100 mkd × 5 i.p., P <.05",22%
same,Median survival,100 mkd × 5 i.p.,11 days
same,Mean ± SD survival,100 mkd × 5 i.p.,10.6 ± .5 days
same,Mean Animal Weight,200 mkd × 5 i.p.,20.2 g
same,Survival Range,200 mkd × 5 i.p.,9 to 11 days
same,% ILS (increase in life span),"200 mkd × 5 i.p., P 0.1",11%
same,Median survival,200 mkd × 5 i.p.,10 days
same,Mean ± SD survival,200 mkd × 5 i.p.,10 ± 0.4 days
same,% ILS (increase in life span),500 mkd × 5 i.p.,-34%
same,Mean Animal Weight,500 mkd × 5 i.p.,15.9 g
same,Survival Range,500 mkd × 5 i.p.,6 to 7 days
same,Median survival,500 mkd × 5 i.p.,6 days
same,Mean ± SD survival,500 mkd × 5 i.p.,6.4 ± 0.2 days

# — US4918056A, “2-substituted arabinopyranosyl nucleosides and nucleotides” (priority 1986, dated 1990)
